The source of these data is paper PMC2375326, “In vitro evaluation of amino acid prodrugs of novel antitumour 2-(4-amino-3-methylphenyl)benzothiazoles” (British Journal of Cancer, 2002).

Series [1] has as its system MCF-7 (ER+) human derived breast carcinoma cells. Briefly: Growth inhibitory assay (MTT), MCF-7. Type of series: cell-based. The following applies: MCF7, ER+ MCF-7, 3 days (72 h) treatment, n=8, representative mean, ^a = biphasic dose response. How it is done:
Prodrugs were prepared as 10 mM top stocks, dissolved in dimethylsulphoxide (DMSO) or sterile ddH2O, and stored at 4°C, protected from light for a maximum period of 4 weeks. MCF-7 (ER+) and MDA 468 (ER−) human derived breast carcinoma cells, cultivated at 37°C in an atmosphere of 5% CO2 in RPMI 1640 medium supplemented with 2 mM L-glutamine and 10% foetal calf serum, were routinely subcultured twice weekly to maintain continuous logarithmic growth. Cells were seeded into 96-well microtiter plates at a density of 5×10^3 per well and allowed 24 h to adhere before drugs were introduced (final concentration 0.1 nM–100 μM, n=8). Serial drug dilutions were prepared in medium immediately prior to each assay. Viable cell masses at the time of drug addition (time-zero), and following 72 h drug exposure were determined by cell-mediated 3-(4,5-dimethylthiazol-2-yl)-2,5-diphenyltetrazolium bromide (MTT) reduction. MTT was added to each well (final concentration 400 μg ml^−1) and plates were incubated at 37°C for 4 h to allow reduction of MTT by viable cell dehydrogenases to an insoluble formazan product. Well supernatants were aspirated and cellular formazan solubilised by addition of DMSO : glycine buffer (pH 10.5) (4 : 1). Cell growth as well as drug activity were determined by measuring absorbance at 550 nm using an Anthos Labtec systems plate reader.

For series [2], the system named is CYP1A1 protein expression in HCT 116 cells. Briefly: Western blot of CYP1A1 protein, HCT 116 lysates. Type of series: cell-based, human. How it is done: Whole cell lysates were prepared for examination of CYP1A1 protein expression from untreated MCF-7, IGROV-1 and HCT 116 cultures and following exposure of cells to compounds 1, 2, 2a, 2b, 3, 3a, 3b, 4, 4a and 4b. Following protein determination (n=3, [Bradford, 1976]) and addition of sample buffer, samples were boiled at 95°C for 5 min and solubilised proteins (50 μg) were separated by sodium dodecyl sulphate (SDS) polyacrylamide gel (10%) electrophoresis. Proteins were electroblotted to polyvinylidene difluoride (PVDF) membranes and probed for CYP1A1 protein with polyclonal antiserum specific for human CYP1A1/1A2 (Gentest Corporation). Secondary antibody was conjugated to alkaline phosphatase, and CYP1A1 was detected following brief (<10 min) incubation with bromochloroindolyl phosphate and nitro-blue tetrazolium in alkaline phosphatase buffer. Molecular weight markers and a positive control of recombinant CYP1A1 (Gentest Corporation), included in all blots, confirmed detection of 52 kDa CYP1A1 protein.

A further series deals with A549/ATCC. In words: NCI in vitro cytotoxicity assay (SRB), A549/ATCC. Format: cell-based. The settings on record: Homo sapiens, 48 h exposure, sulforhodamine B assay, mean graph, read-out: Log10 GI50 (A549/ATCC) (converted). Here is the method:
(§1) Cell culture and drug application procedures have been described previously ([Boyd and Paull, 1995]). Briefly, cell lines were inoculated into a series of 96-well microtiter plates, with varied seeding densities depending on growth characteristics of each cell line. Following a 24 h drug free incubation, test agents were added at five 10-fold dilutions with a maximum concentration of 100 μM. Cellular protein levels were determined after 48 h drug exposure by sulphorhodamine B colorimetry.
Background: Sulforhodamine B stains cellular protein and so reports cell mass.

The next series relates to HOP-62. In words: NCI in vitro cytotoxicity assay (SRB), HOP-62. Type of series: cell-based. The following applies: Homo sapiens, 48 h exposure, sulforhodamine B assay, mean graph, read-out: Log10 GI50 (HOP-62) (converted). Here is the method:
as §1

A further series deals with NCIH23. Briefly: NCI in vitro cytotoxicity assay (SRB), NCIH23. Type of series: cell-based. The following applies: Homo sapiens, NCI-H23; 48 h exposure, sulforhodamine B assay, mean graph; read-out: Log10 GI50 (NCIH23) (converted). How it is done:
as §1

Another series deals with COLO 205. In words: NCI in vitro cytotoxicity assay (SRB), COLO 205. The following applies: Homo sapiens, 48 h exposure, sulforhodamine B assay, mean graph, read-out: Log10 GI50 (COLO 205) (converted). Type of series: cell-based. Here is the method:
as §1

The subject of the next series is HCT-15. In words: NCI in vitro cytotoxicity assay (SRB), HCT-15. Type of series: cell-based. The following applies: Homo sapiens, 48 h exposure, sulforhodamine B assay, mean graph, read-out: Log10 GI50 (HCT-15) (converted). Here is the method:
as §1

The subject of the next series is SF-268. In words: NCI in vitro cytotoxicity assay (SRB), SF-268. Format: cell-based. The settings on record: Homo sapiens, 48 h exposure, sulforhodamine B assay, mean graph, read-out: Log10 GI50 (SF-268) (converted). How it is done:
as §1

The test system of the next series is SNB-75. Briefly: NCI in vitro cytotoxicity assay (SRB), SNB-75. Type of series: cell-based. The following applies: Homo sapiens, 48 h exposure, sulforhodamine B assay, mean graph, read-out: Log10 GI50 (SNB-75) (converted). Here is the method: as §1
Another series has as its system MALME-3M. In words: NCI in vitro cytotoxicity assay (SRB), MALME-3M. Type of series: cell-based. The settings on record: Homo sapiens, 48 h exposure, sulforhodamine B assay, mean graph, read-out: Log10 GI50 (MALME-3M) (converted). Here is the method:
as §1

In the next series the test system is SK-MEL-28. In words: NCI in vitro cytotoxicity assay (SRB), SK-MEL-28. Format: cell-based. The following applies: Homo sapiens, 48 h exposure, sulforhodamine B assay, mean graph, read-out: Log10 GI50 (SK-MEL-28) (converted). How it is done:
as §1

The test system of another series is UACC-257. Briefly: NCI in vitro cytotoxicity assay (SRB), UACC-257. The settings on record: Homo sapiens, 48 h exposure, sulforhodamine B assay, mean graph, read-out: Log10 GI50 (UACC-257) (converted). Type of series: cell-based. Here is the method:
as §1

For another series, the system named is SK-OV-3. Briefly: NCI in vitro cytotoxicity assay (SRB), SK-OV-3. Type of series: cell-based. The following applies: Homo sapiens, 48 h exposure, sulforhodamine B assay, mean graph, read-out: Log10 GI50 (SK-OV-3) (converted). Here is the method: as §1
For another series, the system named is A498. Briefly: NCI in vitro cytotoxicity assay (SRB), A498. Type of series: cell-based. The settings on record: Homo sapiens, 48 h exposure, sulforhodamine B assay, mean graph, read-out: Log10 GI50 (A498) (converted). Here is the method:
as §1

The next series deals with RXF 393. Briefly: NCI in vitro cytotoxicity assay (SRB), RXF 393. Type of series: cell-based. The settings on record: Homo sapiens, 48 h exposure, sulforhodamine B assay, mean graph, read-out: Log10 GI50 (RXF 393) (converted). Here is the method: as §1
For another series, the system named is SN12C. In words: NCI in vitro cytotoxicity assay (SRB), SN12C. The settings on record: Homo sapiens, 48 h exposure, sulforhodamine B assay, mean graph, read-out: Log10 GI50 (SN12C) (converted). Format: cell-based. Here is the method: as §1
For another series, the system named is PC-3. Briefly: NCI in vitro cytotoxicity assay (SRB), PC-3. Type of series: cell-based. The settings on record: Homo sapiens, 48 h exposure, sulforhodamine B assay, mean graph, read-out: Log10 GI50 (PC-3) (converted). Here is the method:
as §1

A further series concerns HS 578T. Briefly: NCI in vitro cytotoxicity assay (SRB), HS 578T. Format: cell-based. The settings on record: Homo sapiens, 48 h exposure, sulforhodamine B assay, mean graph, read-out: Log10 GI50 (HS 578T) (converted). Here is the method: as §1
Series [3] deals with NCI in vitro panel of human derived cancer cell lines. In words: NCI in vitro cytotoxicity assay (SRB), whole panel mean graph. Type of series: cell-based. The settings on record: average GI50 over the panel, 48 h exposure, sulforhodamine B assay, read-out: Log10 GI50 (MG_MID) (converted). How it is done: as §1

The structures appear in SMILES notation.

For the molecule `Cc1cc(-c2nc3cc(F)ccc3s2)ccc1NC(=O)[C@@H](N)CCCCN` [Compound 2b], the GI50 in series [1] was 0.0391 µM; in the series on A549/ATCC, 1.7 µM; with HOP-62, 6.31 µM; in the series on NCIH23, 6.17 µM; in the series with COLO 205, 3.31 µM; with HCT-15 it was 5.25 µM. Besides, the GI50 is 6.76 µM in the series on SF-268; 1.62 µM in the series with SNB-75; 17.4 µM in the series on MALME-3M; 22.4 µM in the series with SK-MEL-28; 15.8 µM in the series on UACC-257; 16.2 µM in the series with SK-OV-3. Also, the GI50 with A498 was 12.6 µM; in the series with RXF 393, 7.24 µM; in the series with SN12C it was 12.3 µM; with PC-3, 12.6 µM; in the series on HS 578T it was 3.63 µM; in series [3], 2.51 µM. Moreover, the “CYP1A1 protein expression (Western blot)” value in series [2] is listed as “not induced”.
In the case of `Cc1cc(-c2nc3cc(F)ccc3s2)ccc1N` [Compound 2, 2-(4-Amino-3-methylphenyl)-5-fluorobenzothiazole], the GI50 in [1] was less than 0.0001 µM; with A549/ATCC, 6.92 µM; with HOP-62, 18.6 µM; in the series on NCIH23 it was 51.3 µM; in the series on COLO 205, 66.1 µM; with HCT-15, 7.94 µM. For the same molecule, the GI50 in the series on SF-268 was 58.9 µM; in the series on SNB-75, 17 µM; in the series with MALME-3M it was 91.2 µM; in the series on SK-MEL-28, greater than 100 µM; with UACC-257, 77.6 µM; in the series on SK-OV-3, 83.2 µM. Besides, the GI50 with A498 is 2.82 µM; in the series on RXF 393 it was 32.4 µM; with SN12C it was 74.1 µM; in the series on PC-3, 23.4 µM; in the series on HS 578T it was 46.8 µM; in series [3] it was 11 µM. Further, the “CYP1A1 protein expression (Western blot)” value in series [2] is listed as “not induced”.
